Reference: US20240158445A1, “CYCLIC CELL-PENETRATING PEPTIDES WITH THREE OR MORE HYDROPHOBIC RESIDUES” (Ohio State Innovation Foundation, priority 2021, published 2024)
Where a SMILES comes first, the peptide text is derived from it. Side-chain parts run from the residue outwards. [ ]: non-standard residue; d: D form. The star is where a group is joined. X2 = NC(=O)[C@H](CCCCNC(=O)c1ccc(-c2c3ccc4cc(O)ccc4c3oc3c2ccc2cc(=O)ccc23)c(C(=O)O)c1)N*; Lys(5-FITC)NH2 = NC(=O)[C@H](CCCCNC(=S)Nc1ccc2c(c1)C(=O)OC21c2ccc(O)cc2Oc2cc(O)ccc21)N*; X1 = CN(C)c1ccc2c(c1)Oc1cc(N(C)C)ccc1C21OC(=O)c2cc(C(=O)NCCCC[C@H](N*)C(N)=O)ccc21; 2Nal = N[C@@H](Cc1ccc2ccccc2c1)C(=O)O; Bta = N[C@@H](Cc1csc2ccccc12)C(=O)O; AEEA = NCCOCCOCC(=O)O

Key:
[1] = target: proteins in FBS; assay: Fluorescence polarization analysis of CPP binding to FBS; parameters: species or system bovine; details: 100 nM labeled peptide, FBS in DPBS, 1 h, FP; read-out: apparent KD to proteins in FBS
Protocol: General Methods—Fluorescence Polarization (FP) Analysis of CPP Binding to FBS. Fluorescein-labeled peptide (100 nM) was incubated with serial dilutions of FBS (0-100 μM) in DPBS for 1 h. The solutions were transferred to a 384-black microplate (Greiner), and FP values were measured on a Tecan Infinite M1000 Pro plate reader, with excitation and emission wavelengths at 470 and 535 nm, respectively, for FITC, 530 and 580 nm for TMR, and 595 and 660 nm for NF. The titration curves were fitted using GraphPad Prism to the following equation: […]
where FP is the measured polarization, Amin is the minimum FP value, Amax is the maximum FP value, Qb is the quantum yield of the bound fluorophore, Qf is the quantum yield of the free fluorophore, L is the ligand concentration, KD is the dissociation constant, and x is the protein concentration. Data presented are the mean±SD of three independent experiments.

[2] = tested on: HeLa cells; assay: Live-cell confocal microscopy; type: cell-based, human; details: 2 h, 1% FBS
Protocol: General Methods—Confocal Microscopy. HeLa cells were seeded in a 35-mm glass-bottomed microwell dish with 4 compartments (Greiner) at a density of 5×10^4 cells/mL (300 μL in each compartment) and cultured overnight. Next day, the cells were gently washed with DPBS twice, and treated for 2 h with FITC- or TMR-labelled peptides (5 μM, 1 μM or 0.2 μM as indicated) in phenol-red free DMEM containing 1% […]. After removal of the medium, the cells were gently washed with DPBS twice and imaged on a Nikon A1R live-cell confocal laser scanning (ECLIPSE Ti-E automated, inverted) microscope equipped with a 100× oil objective (1.45 N.A.) and a heated (37° C.) chamber supplied with 5% CO2. For the red channel (TMR), the laser line with λEx 561 nm was set at 0.6% laser power (for 5 μM peptide treatment), 1.6% laser power (for 1 μM peptide treatment) or 10.8% laser power (for 0.2 μM peptide treatment). For the green channel (FITC), the laser line with λEx 487 nm was set at 0.6% laser power. The data were analyzed using NIS-Elements AR.

[3] = tested on: Keap1-Nrf2 interaction; assay: Luciferase reporter assay in ARE reporter-HepG2 cells; type: cell-based; details: up to 5 mM concentration
Protocol: General Methods—Luciferase Reporter Assay. ARE reporter-HepG2 cells (1000 cells per well) were seeded in 100 μL of assay medium (MEM, 0% FBS, and 1% penicillin-streptomycin sulfate) in an opaque 96-well plate and cultured overnight. […] After incubation, 100 μL of One-Step luciferase assay reagent was added to each well and after 15 min of shaking, the luminescence was measured using a Tecan Infinite M1000 Pro microplate reader. P values (<0.05) were estimated using Student's t test.

| Kd [1] [µM] | Compound | intracellular distribution of TMR fluorescence ([2]; 0.2 and 1.0 μM) | intracellular distribution of TMR fluorescence ([2]; 5 μM) | increase in luciferase activity [3] |
| --- | --- | --- | --- | --- |
| 1.3 ± 0.3 | N=C(N)NCCC[C@@H]1NC(=O)[C@H](Cc2ccc3ccccc3c2)NC(=O)[C@@H](Cc2ccccc2)NC(=O)[C@H](Cc2ccccc2)NC(=O)[C@H](CCC(=O)NCCOCCOCC(=O)N[C@@H](CCCCNC(=O)c2ccc(-c3c4ccc5cc(O)ccc5c4oc4c3ccc3cc(=O)ccc34)c(C(=O)O)c2)C(N)=O)NC(=O)[C@@H](CCCNC(=N)N)NC(=O)[C@H](CCCNC(=N)N)NC(=O)[C@@H](CCCNC(=N)N)NC1=O [CPP12, cycl(Phe-D-Phe-Nal-Arg-D-Arg-Arg-D-Arg-Gln)] (cyclo([2Nal]R[dR]R[dR]E([AEEA-X2])F[dF])) |  |  |  |
| 1.2 ± 0.4 | N=C(N)NCCC[C@@H]1NC(=O)[C@H](Cc2csc3ccccc23)NC(=O)[C@@H](Cc2ccccc2)NC(=O)[C@H](Cc2ccccc2)NC(=O)[C@H](CCC(=O)NCCOCCOCC(=O)N[C@@H](CCCCNC(=O)c2ccc(-c3c4ccc5cc(O)ccc5c4oc4c3ccc3cc(=O)ccc34)c(C(=O)O)c2)C(N)=O)NC(=O)[C@@H](CCCNC(=N)N)NC(=O)[C@H](CCCNC(=N)N)NC(=O)[C@@H](CCCNC(=N)N)NC1=O [CPP12-2, Phe-phe-(Bta)-Arg-arg-Arg-arg-Gln] (cyclo([Bta]R[dR]R[dR]E([AEEA-X2])F[dF])) |  |  |  |
| 30 ± 5 | N=C(N)NCCC[C@@H]1NC(=O)[C@H](Cc2csc3ccccc23)NC(=O)[C@@H](Cc2ccccc2)NC(=O)[C@H](Cc2ccccc2)NC(=O)[C@H](CCC(=O)NCCOCCOCC(=O)N[C@@H](CCCCNC(=S)Nc2ccc3c(c2)C(=O)OC32c3ccc(O)cc3Oc3cc(O)ccc32)C(N)=O)NC(=O)[C@@H](CCCNC(=N)N)NC(=O)[C@H](CCCNC(=N)N)NC(=O)[C@@H](CCCNC(=N)N)NC1=O [CPP12-2^FITC] (cyclo(F[dF][Bta]R[dR]R[dR]E([AEEA-Lys(5-FITC)NH2]))) |  |  |  |
| 68 ± 9 | CN(C)c1ccc2c(c1)Oc1cc(N(C)C)ccc1C21OC(=O)c2cc(C(=O)NCCCC[C@H](NC(=O)COCCOCCNC(=O)CC[C@@H]3NC(=O)[C@@H](CCCNC(=N)N)NC(=O)[C@H](CCCNC(=N)N)NC(=O)[C@@H](CCCNC(=N)N)NC(=O)[C@H](CCCNC(=N)N)NC(=O)[C@H](Cc4csc5ccccc45)NC(=O)[C@@H](Cc4ccccc4)NC(=O)[C@H](Cc4ccccc4)NC3=O)C(N)=O)ccc21 [CPP12-2^TMR] (cyclo([Bta]R[dR]R[dR]E([AEEA-X1])F[dF])) | predominantly punctate fluorescence in the cytoplasmic region |  |  |
| 29 ± 3 | N=C(N)NCCC[C@@H]1NC(=O)[C@H](Cc2ccc3ccccc3c2)NC(=O)[C@@H](Cc2ccccc2)NC(=O)[C@H](Cc2ccccc2)NC(=O)[C@H](CCC(=O)NCCOCCOCC(=O)N[C@@H](CCCCNC(=S)Nc2ccc3c(c2)C(=O)OC32c3ccc(O)cc3Oc3cc(O)ccc32)C(N)=O)NC(=O)[C@@H](CCCNC(=N)N)NC(=O)[C@H](CCCNC(=N)N)NC(=O)[C@@H](CCCNC(=N)N)NC1=O [CPP12^FITC] (cyclo(F[dF][2Nal]R[dR]R[dR]E([AEEA-Lys(5-FITC)NH2]))) |  |  |  |
| 27 ± 9 | CN(C)c1ccc2c(c1)Oc1cc(N(C)C)ccc1C21OC(=O)c2cc(C(=O)NCCCC[C@H](NC(=O)COCCOCCNC(=O)CC[C@@H]3NC(=O)[C@@H](CCCNC(=N)N)NC(=O)[C@H](CCCNC(=N)N)NC(=O)[C@@H](CCCNC(=N)N)NC(=O)[C@H](CCCNC(=N)N)NC(=O)[C@H](Cc4ccc5ccccc5c4)NC(=O)[C@@H](Cc4ccccc4)NC(=O)[C@H](Cc4ccccc4)NC3=O)C(N)=O)ccc21 [CPP12^TMR] (cyclo([2Nal]R[dR]R[dR]E([AEEA-X1])F[dF])) | predominantly punctate fluorescence in the cytoplasmic region | very similar intracellular distribution |  |
|  | CC(C)C[C@@H]1NC(=O)[C@H](Cc2ccccc2)NC(=O)[C@H](CCC(=O)O)NC(=O)CNC(=O)[C@H]([C@@H](C)O)NC(=O)[C@H](CCC(=O)O)NC(=O)[C@@H]2CCCN2C(=O)[C@H](CC(=O)O)NC(=O)[C@H](CC(C)C)NC(=O)[C@H](CCC(N)=O)NC(=O)CNC1=O [Peptide P1] |  |  | did not result in significant increase in luciferase activity |
